Source: ChEMBL document CHEMBL5608222, “Development of 3'-Deoxy-3',4'-didehydro-nucleoside Prodrug Inhibitors of West Nile and Zika Viruses” (ACS Med Chem Lett, 2024)
Activity calls are given as the source filed them. The calls are words filed in the database; no cut-off is given here.

System: Zika virus
Test: Antiviral activity against ZIKV infected in Huh-7 cells assessed as reduction in viral titer at 0.1 to 1 mM preincubated for 24 hrs prior to compound washout followed by viral infection for 1 hr again media washout and compound addition for 3 days by neutral red staining based assay
Format: functional
Design: scale not given: the % may be the effect or the level left
Settings: dose 0.1-1 mM, time 96 hrs

Row | SMILES | Activity [%]
1 | CC(C)OC(=O)[C@H](C)N[P@](=O)(OCC1=C[C@@H](O)[C@H](n2cnc3c(N)ncnc32)O1)Oc1ccccc1 | 100

Same assay, conditions: dose 0.1-1 mM, time 96.0 hrs

Row | SMILES | Activity
2 | Cc1cn([C@@H]2OC(CO[P@@](=O)(N[C@@H](C)C(=O)OC(C)C)Oc3ccccc3)=C[C@H]2O)c(=O)[nH]c1=O | inactive
3 | CC(C)OC(=O)[C@H](C)N[P@](=O)(OCC1=C[C@@H](O)[C@H](n2cnc3c(=O)[nH]cnc32)O1)Oc1ccccc1 | inactive

System: Huh-7
Test: Cytotoxicity against human Huh-7 cells assessed as decrease in cell viability at 0.1 to 1 mM incubated for 5 days by Alamar blue assay
Format: toxicity, cell-based
Settings: huh-7, 120 h, 1000 µM, dose 0.1-1 mM, time 5 day

Row | SMILES | Activity
4 | Nc1nc2c(ncn2[C@@H]2OC(CO)=C[C@H]2O)c(=O)[nH]1 | Non-Toxic
5 | CC(C)OC(=O)[C@H](C)N[P@](=O)(OCC1=C[C@@H](O)[C@H](n2cnc3c(=O)[nH]cnc32)O1)Oc1ccccc1 | Non-Toxic
6 | Nc1ncnc2c1ncn2[C@@H]1OC(CO)=C[C@H]1O | < 25%
7 | CC(C)OC(=O)[C@H](C)N[P@](=O)(OCC1=C[C@@H](O)[C@H](n2cnc3c(=O)[nH]c(N)nc32)O1)Oc1ccccc1 | Non-Toxic
8 | Cc1cn([C@@H]2OC(CO)=C[C@H]2O)c(=O)[nH]c1=O | Non-Toxic
9 | O=c1[nH]cnc2c1ncn2[C@@H]1OC(CO)=C[C@H]1O | Non-Toxic
10 | O=c1ccn([C@@H]2OC(CO)=C[C@H]2O)c(=O)[nH]1 | Non-Toxic

System: Huh-7
Test: Cytotoxicity against human Huh-7 cells at 0.1 to 1 mM incubated for 6 days by neutral red staining based assay
Format: toxicity, cell-based
Settings: huh-7, 144 h, 1000 µM, dose 0.1-1 mM, time 6 day

Row | SMILES | Activity
11 | Cc1cn([C@@H]2OC(CO[P@@](=O)(N[C@@H](C)C(=O)OC(C)C)Oc3ccccc3)=C[C@H]2O)c(=O)[nH]c1=O | Non-Toxic
12 | Nc1nc2c(ncn2[C@@H]2OC(CO)=C[C@H]2O)c(=O)[nH]1 | Non-Toxic
13 | CC(C)OC(=O)[C@H](C)N[P@](=O)(OCC1=C[C@@H](O)[C@H](n2ccc(=O)[nH]c2=O)O1)Oc1ccccc1 | Non-Toxic
14 | CC(C)OC(=O)[C@H](C)N[P@](=O)(OCC1=C[C@@H](O)[C@H](n2cnc3c(=O)[nH]cnc32)O1)Oc1ccccc1 | Non-Toxic
15 | Nc1ncnc2c1ncn2[C@@H]1OC(CO)=C[C@H]1O | Toxic
16 | CC(C)OC(=O)[C@H](C)N[P@](=O)(OCC1=C[C@@H](O)[C@H](n2cnc3c(=O)[nH]c(N)nc32)O1)Oc1ccccc1 | Non-Toxic
17 | Cc1cn([C@@H]2OC(CO)=C[C@H]2O)c(=O)[nH]c1=O | Non-Toxic
18 | O=c1[nH]cnc2c1ncn2[C@@H]1OC(CO)=C[C@H]1O | Non-Toxic
19 | O=c1ccn([C@@H]2OC(CO)=C[C@H]2O)c(=O)[nH]1 | Non-Toxic
20 | CC(C)OC(=O)[C@H](C)N[P@](=O)(OCC1=C[C@@H](O)[C@H](n2cnc3c(N)ncnc32)O1)Oc1ccccc1 | Toxic

System: not listed separately
Test: Cytotoxicity against human Huh-7 cells assessed as cell viability at 1 mM incubated for 6 days by neutral red staining based assay
Format: toxicity
Settings: time 6 day, read-out: Activity

Row | SMILES | viability at 144 h, 1000 µM [%]
21 | Nc1ncnc2c1ncn2[C@@H]1OC(CO)=C[C@H]1O | 70
22 | CC(C)OC(=O)[C@H](C)N[P@](=O)(OCC1=C[C@@H](O)[C@H](n2cnc3c(N)ncnc32)O1)Oc1ccccc1 | 70

System: Zika virus
Test: Antiviral activity against ZIKV infected in Huh-7 cells assessed as log reduction in viral titer at 0.1 mM preincubated for 24 hrs prior to compound washout followed by viral infection for 1 hr again media washout and compound addition for 3 days by neutral red staining based assay
Format: functional
Settings: time 96 hrs

Row | SMILES | log(activity)
23 | CC(C)OC(=O)[C@H](C)N[P@](=O)(OCC1=C[C@@H](O)[C@H](n2ccc(=O)[nH]c2=O)O1)Oc1ccccc1 | 2.5

Same assay, conditions: time 96.0 hrs

Row | SMILES | Activity
24 | CC(C)OC(=O)[C@H](C)N[P@](=O)(OCC1=C[C@@H](O)[C@H](n2cnc3c(=O)[nH]c(N)nc32)O1)Oc1ccccc1 | Active
25 | CC(C)OC(=O)[C@H](C)N[P@](=O)(OCC1=C[C@@H](O)[C@H](n2cnc3c(N)ncnc32)O1)Oc1ccccc1 | Active

System: West Nile virus
Test: Antiviral activity against WNV infected in Huh-7 cells assessed as log reduction in viral titer at 0.1 to 1 mM preincubated for 24 hrs prior to compound washout followed by viral infection for 1 hr again media washout and compound addition for 3 days by neutral red staining based assay
Format: functional
Settings: dose 0.1-1 mM, time 96.0 hrs

Row | SMILES | Activity
26 | Cc1cn([C@@H]2OC(CO[P@@](=O)(N[C@@H](C)C(=O)OC(C)C)Oc3ccccc3)=C[C@H]2O)c(=O)[nH]c1=O | inactive
27 | Nc1nc2c(ncn2[C@@H]2OC(CO)=C[C@H]2O)c(=O)[nH]1 | inactive
28 | CC(C)OC(=O)[C@H](C)N[P@](=O)(OCC1=C[C@@H](O)[C@H](n2ccc(=O)[nH]c2=O)O1)Oc1ccccc1 | inactive
29 | CC(C)OC(=O)[C@H](C)N[P@](=O)(OCC1=C[C@@H](O)[C@H](n2cnc3c(=O)[nH]cnc32)O1)Oc1ccccc1 | inactive
30 | CC(C)OC(=O)[C@H](C)N[P@](=O)(OCC1=C[C@@H](O)[C@H](n2cnc3c(=O)[nH]c(N)nc32)O1)Oc1ccccc1 | inactive
31 | Cc1cn([C@@H]2OC(CO)=C[C@H]2O)c(=O)[nH]c1=O | inactive
32 | O=c1[nH]cnc2c1ncn2[C@@H]1OC(CO)=C[C@H]1O | inactive
33 | O=c1ccn([C@@H]2OC(CO)=C[C@H]2O)c(=O)[nH]1 | inactive

Same assay, conditions: dose 0.1-1 mM; time 96 hrs

Row | SMILES | log(activity)
34 | CC(C)OC(=O)[C@H](C)N[P@](=O)(OCC1=C[C@@H](O)[C@H](n2cnc3c(N)ncnc32)O1)Oc1ccccc1 | 4.8

System: Huh-7
Test: Cytotoxicity against human Huh-7 cells at 1 mM
Format: toxicity, cell-based
Settings: huh-7, 120 h, 1000 µM, time 5 day

Row | SMILES | Activity
35 | Nc1ncnc2c1ncn2[C@@H]1OC(CO)=C[C@H]1O | Toxic
36 | CC(C)OC(=O)[C@H](C)N[P@](=O)(OCC1=C[C@@H](O)[C@H](n2cnc3c(N)ncnc32)O1)Oc1ccccc1 | Toxic

System: Huh-7
Test: Cytotoxicity against human Huh-7 cells assessed as decrease in cell viability at 1 mM incubated for 5 days by Alamar blue assay
Format: toxicity, cell-based
Settings: huh-7, 120 h, 1000 µM, time 5 day

Row | SMILES | Activity [%]
37 | Cc1cn([C@@H]2OC(CO[P@@](=O)(N[C@@H](C)C(=O)OC(C)C)Oc3ccccc3)=C[C@H]2O)c(=O)[nH]c1=O | 50
38 | CC(C)OC(=O)[C@H](C)N[P@](=O)(OCC1=C[C@@H](O)[C@H](n2ccc(=O)[nH]c2=O)O1)Oc1ccccc1 | 70
39 | CC(C)OC(=O)[C@H](C)N[P@](=O)(OCC1=C[C@@H](O)[C@H](n2cnc3c(N)ncnc32)O1)Oc1ccccc1 | 25

System: West Nile virus
Test: Antiviral activity against WNV infected in Huh-7 cells assessed as log reduction in viral titer at 0.1 mM preincubated for 24 hrs prior to compound washout followed by viral infection for 1 hr again media washout and compound addition for 3 days by neutral red staining based assay
Format: functional
Settings: time 96 hrs

Row | SMILES | log(activity)
40 | Nc1ncnc2c1ncn2[C@@H]1OC(CO)=C[C@H]1O | 1.5
41 | CC(C)OC(=O)[C@H](C)N[P@](=O)(OCC1=C[C@@H](O)[C@H](n2cnc3c(N)ncnc32)O1)Oc1ccccc1 | 2.5

System: Zika virus
Test: Antiviral activity against ZIKV infected in Huh-7 cells assessed as log reduction in viral titer at 1 mM preincubated for 24 hrs prior to compound washout followed by viral infection for 1 hr again media washout and compound addition for 3 days by neutral red staining based assay
Format: functional
Settings: time 96 hrs

Row | SMILES | log(activity)
42 | CC(C)OC(=O)[C@H](C)N[P@](=O)(OCC1=C[C@@H](O)[C@H](n2cnc3c(=O)[nH]c(N)nc32)O1)Oc1ccccc1 | 3.8

Same assay, conditions: time 96.0 hrs

Row | SMILES | Activity
43 | CC(C)OC(=O)[C@H](C)N[P@](=O)(OCC1=C[C@@H](O)[C@H](n2ccc(=O)[nH]c2=O)O1)Oc1ccccc1 | inactive

System: not listed separately
Test: Cytotoxicity against african green monkey Vero cells assessed as decrease in cell viability at 0.1 to 1 mM incubated for 5 days by Alamar blue assay
Format: toxicity, cell-based
Settings: chlorocebus sabaeus, 120 h, 1000 µM, dose 0.1-1 mM, time 5 day

Row | SMILES | Activity
44 | Nc1nc2c(ncn2[C@@H]2OC(CO)=C[C@H]2O)c(=O)[nH]1 | Non-Toxic
45 | CC(C)OC(=O)[C@H](C)N[P@](=O)(OCC1=C[C@@H](O)[C@H](n2cnc3c(=O)[nH]cnc32)O1)Oc1ccccc1 | Non-Toxic
46 | Nc1ncnc2c1ncn2[C@@H]1OC(CO)=C[C@H]1O | Non-Toxic
47 | CC(C)OC(=O)[C@H](C)N[P@](=O)(OCC1=C[C@@H](O)[C@H](n2cnc3c(=O)[nH]c(N)nc32)O1)Oc1ccccc1 | Non-Toxic
48 | Cc1cn([C@@H]2OC(CO)=C[C@H]2O)c(=O)[nH]c1=O | Non-Toxic
49 | O=c1[nH]cnc2c1ncn2[C@@H]1OC(CO)=C[C@H]1O | Non-Toxic
50 | O=c1ccn([C@@H]2OC(CO)=C[C@H]2O)c(=O)[nH]1 | Non-Toxic

System: West Nile virus
Test: Antiviral activity against WNV infected in Huh-7 cells assessed as log reduction in viral titer at 1 mM preincubated for 24 hrs prior to compound washout followed by viral infection for 1 hr again media washout and compound addition for 3 days by neutral red staining based assay
Format: functional, organism-based
Settings: time 96.0 hrs

Row | SMILES | Activity
51 | Nc1ncnc2c1ncn2[C@@H]1OC(CO)=C[C@H]1O | Active
52 | CC(C)OC(=O)[C@H](C)N[P@](=O)(OCC1=C[C@@H](O)[C@H](n2cnc3c(N)ncnc32)O1)Oc1ccccc1 | Active

System: not listed separately
Test: Cytotoxicity against african green monkey Vero cells assessed as decrease in cell viability at 1 mM incubated for 5 days by Alamar blue assay
Format: toxicity, cell-based
Settings: chlorocebus sabaeus, 120 h, 1000 µM, time 5 day

Row | SMILES | Activity
53 | Cc1cn([C@@H]2OC(CO[P@@](=O)(N[C@@H](C)C(=O)OC(C)C)Oc3ccccc3)=C[C@H]2O)c(=O)[nH]c1=O | Non-Toxic
54 | CC(C)OC(=O)[C@H](C)N[P@](=O)(OCC1=C[C@@H](O)[C@H](n2ccc(=O)[nH]c2=O)O1)Oc1ccccc1 | Non-Toxic
55 | CC(C)OC(=O)[C@H](C)N[P@](=O)(OCC1=C[C@@H](O)[C@H](n2cnc3c(N)ncnc32)O1)Oc1ccccc1 | 80%

System: not listed separately
Test: Cytotoxicity against african green monkey Vero cells assessed as decrease in cell viability at 0.1 to 1 mM incubated for 2 days by Alamar blue assay
Format: toxicity, cell-based
Settings: chlorocebus sabaeus, 48 h, 1000 µM, dose 0.1-1 mM, time 2 day

Row | SMILES | Activity
56 | Nc1ncnc2c1ncn2[C@@H]1OC(CO)=C[C@H]1O | Toxic
